Measured values published in ChEMBL document CHEMBL4145467, “Glycogen synthase kinase-3 and its inhibitors: Potential target for various therapeutic conditions” (Eur J Med Chem, 2018).
Blank lines part the entries; values can stand above or below the compound they belong to.

Experiments:
[1] = molecular target: Glycogen synthase kinase 3 beta (Sus scrofa, UniProt B2LUN4); assay: Inhibition of pig brain GSK3beta using GS1 as substrate after 30 mins
[2] = Inhibition of recombinant rabbit GSK-3beta assessed as decrease in PPI-2 phosphorylation in presence of 33P-ATP after 90 mins by topcount scintillation counting; parameters: species or system Oryctolagus cuniculus
[3] = molecular target: T1, Glycogen synthase kinase-3 alpha (Homo sapiens, UniProt P49840); assay: Inhibition of human GSK3alpha
[4] = molecular target: T2, Glycogen synthase kinase-3 beta (Homo sapiens, UniProt P49841); assay: Inhibition of recombinant GSK3-beta (unknown origin) assessed as decrease in phosphorylation of CREB at serine-129 in presence of ATP[gamma-33P] by filter binding assay
Target sequence in this assay (P49841 whole entry): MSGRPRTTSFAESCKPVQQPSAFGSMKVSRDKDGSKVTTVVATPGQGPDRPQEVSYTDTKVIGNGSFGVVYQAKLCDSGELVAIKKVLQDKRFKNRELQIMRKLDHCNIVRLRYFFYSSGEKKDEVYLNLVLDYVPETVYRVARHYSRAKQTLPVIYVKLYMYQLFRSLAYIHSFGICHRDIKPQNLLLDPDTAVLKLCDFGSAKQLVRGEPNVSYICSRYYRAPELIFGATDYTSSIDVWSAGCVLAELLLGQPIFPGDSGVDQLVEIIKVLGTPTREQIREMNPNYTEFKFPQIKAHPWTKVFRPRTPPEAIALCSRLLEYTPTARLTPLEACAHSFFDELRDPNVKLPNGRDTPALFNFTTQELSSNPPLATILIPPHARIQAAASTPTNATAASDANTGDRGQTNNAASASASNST

[5] = Oral bioavailability in Zucker fa/fa rat at 10 mg/kg; type: ADME, organism-based; settings: in vivo
[6] = molecular target: T1, Glycogen synthase kinase-3 alpha; assay: Inhibition of human GSK3alpha using biotin-Ahx-AAAKRREILSRRP-S(PO3)YR-amide as substrate after 40 mins in presence of [33gammaP]-ATP by SPA
Homo sapiens = species on record: Homo sapiens; assay: Selectivity ratio of IC50 for PKCbeta2 (unknown origin) to IC50 for GSK3-beta (unknown origin)
[7] = Inhibition of GSK-3beta (unknown origin)
[8] = molecular target: T2, Glycogen synthase kinase-3 beta; assay: Inhibition of GSK3beta (unknown origin) at 20 uM using FITC-RRRRAAEELDSRAGS(PO4)PQL as substrate after 10 mins by capillary electrophoresis relative to control
Target sequence in this assay (P49841 whole entry, looked up): as the sequence (P49841 whole entry) above

HT-29 = assay: Cytotoxicity against human HT-29 cells at 20 uM after 2 days by MTT assay relative to control; type: functional
MCF7 = assay: Cytotoxicity against human MCF7 cells assessed as reduction in cell viability after 68 hrs by MTT assay; type: functional, cell-based; settings: MCF7, 68 h
[9] = molecular target: T2, Glycogen synthase kinase-3 beta; assay: Inhibition of human GSK3beta using YRRAAVPPSPSLSRHSSPHQS(PO4)EDEEE-NH2 as substrate after 60 mins in presence of [33gammaP]-ATP by topcount method
Target sequence in this assay (P49841 whole entry): as the sequence (P49841 whole entry) above

T1 sequence (P49840 whole entry): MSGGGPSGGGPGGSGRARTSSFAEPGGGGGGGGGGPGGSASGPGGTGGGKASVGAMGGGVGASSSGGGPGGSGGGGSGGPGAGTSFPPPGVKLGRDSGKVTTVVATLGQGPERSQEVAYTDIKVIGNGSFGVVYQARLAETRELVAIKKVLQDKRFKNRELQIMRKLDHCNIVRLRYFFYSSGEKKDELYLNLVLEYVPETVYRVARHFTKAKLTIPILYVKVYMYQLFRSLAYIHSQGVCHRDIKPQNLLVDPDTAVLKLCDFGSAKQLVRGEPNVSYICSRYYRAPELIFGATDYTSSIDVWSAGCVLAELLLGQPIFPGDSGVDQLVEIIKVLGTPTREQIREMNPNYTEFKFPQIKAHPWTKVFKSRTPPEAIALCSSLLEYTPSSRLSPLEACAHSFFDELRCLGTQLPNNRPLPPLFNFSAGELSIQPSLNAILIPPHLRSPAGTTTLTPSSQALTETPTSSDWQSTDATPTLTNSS
Chain of Glycogen synthase kinase 3 beta (B2LUN4 whole entry): as the sequence (P49841 whole entry) above, with V40M, T59A, T392S, A400T, T402A, A411T counted along it

IC50 [2]: 11 nM
SMILES: O=C1NC(=O)C2=C1c1cn(c3ncccc13)CCCCC(O)CCCCn1cc2c2cccnc21

IC50 [2]: 17 nM
SMILES: O=C1NC(=O)C2=C1c1cn(c3ncccc13)CCOCCOCCOCCn1cc2c2cccnc21

Ratio IC50 (Homo sapiens): 325
IC50 [7]: 7 nM
SMILES: COc1ccccc1C1=C(c2cn(CCCNC(=O)OC(C)(C)C)c3ncccc23)C(=O)NC1=O

IC50 [2]: 25 nM
SMILES: O=C1NC(=O)C(c2cn(CCCO)c3ncccc23)=C1c1cnccn1

Ratio IC50 (Homo sapiens): > 385
IC50 [7]: 26 nM
SMILES: O=C1NC(=O)C(c2cn(CCCO)c3ncccc23)=C1c1ncc(C(F)(F)F)cc1Cl

IC50 [4]: 1.3 nM
SMILES: CC(C)OC1Cn2cc(C3=C(c4cnc5ccccn45)C(=O)NC3=O)c3cccc(c32)CN1C=O (configuration not stated)

IC50 [4]: 2 nM
SMILES: O=CN1Cc2cccc3c(C4=C(c5cnc6ccccn56)C(=O)NC4=O)cn(c23)CC1N1CCCCC1 (configuration not stated)

IC50 [4]: 1.6 nM
SMILES: CN(C)C1Cn2cc(C3=C(c4cnc5ccccn45)C(=O)NC3=O)c3cccc(c32)CN1C=O (configuration not stated)

Further lines, the compound ahead of its results:

SMILES: CCOC(=O)c1c2[nH]c3ccccc3c2c(-c2ccc(NC(=O)CCN(C)C)cc2)c2c(=O)[nH][s+]([O-])c12 (configuration not stated)
IC50 [1]: 2800 nM

SMILES: CCCCC(=O)Nc1n[nH]c2nnc(-c3ccccc3)cc12
IC50 [3]: 4 nM

SMILES: O=CN1Cc2cccc3c(C4=C(c5cnc6ccccn56)C(=O)NC4=O)cn(c23)CC1N1CCOCC1 (configuration not stated)
IC50 [4]: 1.3 nM

SMILES: O=CN1Cc2cc(F)cc3c(C4=C(c5cnc6ccccn56)C(=O)NC4=O)cn(c23)CC1N1CCCCC1 (configuration not stated)
bioavailability [5]: 23%
IC50 [4]: 1.1 nM

SMILES: Fc1ccc(/C=N/Nc2ncnc3c2cnn3-c2ccccc2)cc1
IC50 [6]: 6.2 nM

SMILES: O=C1Nc2ccccc2C1=Cc1cc(CN2CCN(c3ccccc3Cl)CC2)on1
inhibition [8]: 72%
Activity (HT-29): 78%

SMILES: Oc1ccc2c(c1)OC[C@]1(O)Cc3cc(O)c(O)cc3[C@H]21 [BRAZILIN]
IC50 (MCF7): 7230 nM

SMILES: Cc1ccc2ncc(C3=C(c4cn5c6c(cccc46)CN(C=O)C(N4CCCCC4)C5)C(=O)NC3=O)n2c1 (configuration not stated)
bioavailability [5]: 45%
IC50 [4]: 5.2 nM

SMILES: CCNC(=O)c1nnn(-c2nonc2N)c1CN1CCCCC1
IC50 [9]: 280 nM
